Patent US9187424B1, “Aryl dihydropyridinones and piperidinone MGAT2 inhibitors” (Bristol-Myers Squibb Company, priority 2011, dated 2015)

Each compound was assayed against T1, Human MGAT-2 (Homo sapiens (Human), UniProt Q3SYC2) (assay: MGAT SPA Assay). Settings: membranes from Sf9 cells expressing recombinant human MGAT2; 2-monooleoylglycerol and [3H]-oleoyl-CoA.
Assay type: biochemical
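Wherever h-MGAT2 IC50 (nM) LCMS Assay is given: diolein product quantified by LC/MS with positive APCI, expressed as peak area ratio versus an internal standard, and this ratio used to derive IC50.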

T1 sequence (Q3SYC2 whole entry): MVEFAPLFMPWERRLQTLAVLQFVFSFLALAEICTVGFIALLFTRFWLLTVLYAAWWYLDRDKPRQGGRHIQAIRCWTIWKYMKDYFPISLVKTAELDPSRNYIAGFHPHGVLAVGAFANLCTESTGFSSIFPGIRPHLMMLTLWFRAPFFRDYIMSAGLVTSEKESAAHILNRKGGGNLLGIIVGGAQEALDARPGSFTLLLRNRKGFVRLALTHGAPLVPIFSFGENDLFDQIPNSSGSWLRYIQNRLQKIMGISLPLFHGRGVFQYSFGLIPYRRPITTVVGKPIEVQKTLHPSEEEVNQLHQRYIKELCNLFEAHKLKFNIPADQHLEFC

IC50 [nM]	Structure (SMILES)
1800	Cc1ccc(C2=C(C#N)C(=O)NC(c3ccc(Br)cc3)(C(F)(F)F)C2)cc1 (stereo not shown) [Example 3, 6-(4-Bromophenyl)-2-oxo-4-p-tolyl-6-(trifluoromethyl)-1,2,5,6-tetrahydropyridine-3-carbonitrile]
5870	Cc1ccc(C2=C(C#N)C(=O)NC(c3ccc(O)cc3)(C(F)(F)F)C2)cc1 (stereo not shown) [Example 4, 6-(4-Hydroxyphenyl)-2-oxo-4-p-tolyl-6-(trifluoromethyl)-1,2,5,6-tetrahydro-pyridine-3-carbonitrile]
818	CCOc1ccc(-c2ccc(C3(C(F)(F)F)CC(c4ccc(C)cc4)=C(C#N)C(=O)N3)cc2)cn1 (stereo not shown) [Example 7, 6-(4-(6-Ethoxypyridin-3-yl)phenyl)-2-oxo-4-p-tolyl-6-(trifluoromethyl)-1,2,5,6-tetrahydropyridine-3-carbonitrile]
1930	CC1(c2ccc(N3CCOCC3)cc2)CC(c2ccc(N3CCOCC3)cc2)=C(C#N)C(=O)N1 (stereo not shown) [Example 17]
5760	Cc1ccc(C2=C(C#N)C(=O)NC(C)(c3ccc(C)c(C)c3)C2)cc1C (stereo not shown) [Example 18]
2900	CCOc1ccc(C2=C(C#N)C(=O)NC(C)(c3ccc(OCC)cc3)C2)cc1 (stereo not shown) [Example 19]

These compounds were tested against T1, Human MGAT-2 (assay: MGAT LCMS Assay (human MGAT-2)). Settings: human MGAT-2 membranes expressed in Sf9 cells; 2-oleoylglycerol and oleoyl-Coenzyme A; read-out: h-MGAT2 IC50 (nM) LCMS Assay.
Assay type: biochemical

Structure (SMILES)	IC50 [nM]
CCCCCC#CC1(C(F)(F)F)CC(c2ccc(C)cc2)=C(c2nn[nH]n2)C(=O)N1 (stereo not shown) [Example 293]	7
COc1ccc(C2=C(c3nn[nH]n3)C(=O)NC(C#CCCc3ccccc3)(C(F)(F)F)C2)cc1 (stereo not shown) [Example 294]	84
COc1ccc(C2=C(c3nn[nH]n3)C(=O)NC(C#CCCC(C)C)(C(F)(F)F)C2)cc1 (stereo not shown) [Example 295]	183
COc1ccc(NC(=O)C2=C(c3ccc(C)cc3F)CC(c3ccc(OCCCC(F)(F)F)cc3)(C(F)(F)F)NC2=O)cc1 (stereo not shown) [Example 296]	2
Cc1ccc(C2=C(NC(=O)CNS(C)(=O)=O)C(=O)NC(c3ccc(OCCCC(F)(F)F)cc3)(C(F)(F)F)C2)cc1 (stereo not shown) [Example 297]	639
CCCCCCC#CC1(C(F)(F)F)CC(c2ccc(C)cc2)=C(NC(=O)CNS(C)(=O)=O)C(=O)N1 (stereo not shown) [Example 298]	2
Cc1ccc(C2=C(NC(=O)c3cccnc3)C(=O)NC(c3ccc(OCCCC(F)(F)F)cc3)(C(F)(F)F)C2)cc1 (stereo not shown) [Example 299]	11
CCCCCCC#CC1(C(F)(F)F)CC(c2ccc(C)cc2)=C(NC(=O)c2cccnc2)C(=O)N1 (stereo not shown) [Example 300]	11
O=C1NC(c2ccc(OCCCCCC(F)(F)F)c(F)c2)(C(F)(F)F)CC(c2ccc(OC(F)F)cc2)=C1c1nn[nH]n1 (stereo not shown) [Example 301]	19

Now from value to compound:

IC50 [nM]	Structure (SMILES)
105	CCCOc1ccc(C2(C(F)(F)F)CC(c3ccc(C)cc3)=C(NC(=O)CS(C)(=O)=O)C(=O)N2)cc1 (stereo not shown) [Example 302]
6	O=C1NC(c2ccc(OCCCCCC(F)(F)F)c(F)c2)(C(F)(F)F)CC(c2ccc3ccccc3c2)=C1c1nn[nH]n1 (stereo not shown) [Example 304]
94	CCOc1ccc(C2=C(c3nn[nH]n3)C(=O)NC(c3ccc(OCCCCCC(F)(F)F)c(F)c3)(C(F)(F)F)C2)cc1 (stereo not shown) [Example 305]
3	O=C1NC(c2ccc(OCCCCCC(F)(F)F)c(F)c2)(C(F)(F)F)CC(c2ccc(CC(F)(F)F)cc2)=C1c1nn[nH]n1 (stereo not shown) [Example 306]
3	CCCCCCC#Cc1ccc(C2(C(F)(F)F)CC(c3ccc(OC(F)F)cc3)=C(c3nn[nH]n3)C(=O)N2)cc1F (stereo not shown) [Example 307]
61	CCCCCCC#Cc1ccc(C2(C(F)(F)F)CC(c3ccc(OCC)cc3)=C(c3nn[nH]n3)C(=O)N2)cc1F (stereo not shown) [Example 308]
1	O=C1NC(c2ccc(OCCCCCC(F)(F)F)c(F)c2)(C(F)(F)F)CC(c2ccc3ccccc3c2)=C1c1nn[nH]n1 (stereo not shown) [Example 309]
4	Cc1ccc(C2=C(NC(=O)c3nnn[nH]3)C(=O)NC(c3ccc(OCCCC(F)(F)F)cc3)(C(F)(F)F)C2)cc1 (stereo not shown) [Example 310]
3	CCCCCCCC#CC1(C(F)(F)F)CC(c2ccc(C)cc2)=C(NC(=O)c2nnn[nH]2)C(=O)N1 (stereo not shown) [Example 311]
4	CCCCCCCC#CC1(C(F)(F)F)CC(c2ccc(OC(F)F)cc2)=C(NC(=O)CS(C)(=O)=O)C(=O)N1 (stereo not shown) [Example 313]
